Assay results taken from article PMC3774728, “Identification of the Plant Compound Geraniin as a Novel Hsp90 Inhibitor” (PLoS ONE, 2013).
Like-named read-outs stand apart in the source and are kept apart here. One block for each compound: values may come before it.

Assays:
[1] = target: T1, recombinant Hsp90α (Homo sapiens, UniProt P07900); test: Surface plasmon resonance binding to immobilized Hsp90α
T1 construct: purchased Assay Designs (Ann Arbor, MI, USA)
Protocol: SPR analyses were carried out according to our previously published procedures, [23]. Briefly, SPR analyses were performed using a Biacore 3000 optical biosensor equipped with research−grade CM5 sensor chips (GE Healthcare). Using this platform, two separate recombinant Hsp90α surfaces, a BSA surface and one unmodified reference surface were prepared for simultaneous analyses. Proteins (100 µg mL^−1 in 10 mM CH3COONa, pH 5.0) were immobilized on individual sensor chip surfaces at a flow rate of 5 µL min^−1 using standard amine−coupling protocols to obtain densities of 8–12 kRU. Polyphenols, as well as 17-AAG and hardwickiic acid (HA), were dissolved in 100% DMSO to obtain 4 mM solutions, and diluted 1∶200 (v/v) in PBS (10 mM NaH2PO4, 150 mM NaCl, pH 7.4) to a final DMSO concentration of 0.5%. […] Binding experiments were performed at 25°C, using a flow rate of 50 µL min^−1, with 60 s monitoring of association and 300 s monitoring of dissociation. Simple interactions were suitably fitted to a single−site bimolecular interaction model (A+B = AB), yielding a single K D. Sensorgram elaborations were performed using the BIAevaluation software provided by GE Healthcare.
Putative interactions of different plant-derived phenolic compounds with Hsp90α were evaluated by a SPR-based approach.

[2] = test system: HeLa cells; test: MTT cell viability, HeLa; assay type: cell-based, human; conditions: 24 h
Protocol: (§1) To ensure logarithmic growth, cells were subcultured every two days. As control cells, human peripheral blood mononuclear cells (PBMC) were isolated from buffy coats of healthy donors (kindly provided by the Blood Center of the Hospital of Battipaglia, Salerno, Italy) by using standard Ficoll−Hypaque gradients. […] Proliferation of PBMC was induced by phytohemagglutinin (PHA) (10 µg mL^−1). Tumor and PBMC cells were treated with different concentrations of geraniin or 17-AAG to evaluate their cytotoxic effects. Stock solutions of geraniin (50 mM in DMSO) and 17-AAG (10 mM in DMSO) were stored a −20°C in the dark and diluted just before addition to the sterile culture medium. In all the experiments, the final concentration of DMSO was 0.10% (v/v).
(§2) Jurkat (2×10^4/well) and HeLa (5000/well) cells were seeded in triplicate in 96 well−plates and incubated for 24 h in the absence or presence of different concentrations of geraniin (between 0,5 µM to 50 µM) or 17-AAG (between 0,5 nM to 10 µM).
(§3) The number of viable cells was determined by using a [3–4,5-dimethyldiazol-2-yl]-2,5-diphenyl tetrazolium bromide (MTT, Sigma-Aldrich) conversion assay, according to the method described by Mosmann. […] The absorbance was measured with a microplate reader (Titertek multiskan MCC7340, LabSystems, Vienna, VA, USA) equipped with a 620 nm filter. […]

[3] = test system: Jurkat cells; test: MTT cell viability, Jurkat; assay type: cell-based, human; conditions: 24 h
Protocol: as §1, §2, §3

[4] = test system: PBMC (human Peripheral Blood Mononuclear Cells); test: Cytotoxicity in PHA-stimulated proliferating PBMC; assay type: cell-based; conditions: 24 h, trypan blue, only at high doses
Protocol: as §1, with “Tumor and PBMC cells were treated with different concentrations of geraniin or 17-AAG to evaluate their cytotoxic effects.” left out
The number of viable cells was determined by using a [3–4,5-dimethyldiazol-2-yl]-2,5-diphenyl tetrazolium bromide (MTT, Sigma-Aldrich) conversion assay, according to the method described by Mosmann. Briefly, following the treatment, 25 µL of MTT (5 mg/mL in PBS) was added and the cells were incubated for additional 3 h at 37°C. Thereafter, cells were lysed and suspended with 100 µL of buffer containing 50% (v/v) N,N-dimethylformamide, 20% SDS (pH 4.5). The absorbance was measured with a microplate reader (Titertek multiskan MCC7340, LabSystems, Vienna, VA, USA) equipped with a 620 nm filter. Cell population growth inhibition was tested by cytometric counting (trypan blu exclusion).

[5] = test system: Jurkat cells; test: Cell cycle and hypodiploidy by flow cytometry (PI), Jurkat; assay type: cell-based, human; conditions: 24 h, geraniin 0.7 µM, 17-AAG 10 µM
Protocol: (§4) Cell DNA content was measured by propidium iodide (PI) incorporation into permeabilized cells, as described by Nicoletti et al.. Briefly, the cells were harvested after geraniin or 17-AAG treatments were washed with cold PBS and incubated with a PI solution (0.1% sodium citrate, 0.1% Triton X-100 and 50 µg mL^−1 of prodium iodide, Sigma-Aldrich, 10 µg/ml Rnase A) for 30 min at room temperature. Data from 10.000 events per sample were collected by a FACScalibur flow cytometer (Becton Dickinson, San José, CA) and cellular debris was excluded from analysis by raising the forward scatter threshold. The percentage of cells in the sub G0/G1 phase, apoptotic fraction, was quantified using CellQuest software (Becton Dickinson). The distribution of cells in G0/G1, S, G2/M phases was determined using ModFit LT cell cycle analysis software (Becton Dickinson). Results were expressed as a mean ± SD of three experiments performed in triplicate.
(§5) Figure 6 Effects of geraniin and 17-AAG on cell cycle progression. Percentage of cell cycle stages was analyzed by flow cytometry, (A) PI-stained viable Jurkat cells treated with DMSO, 0.7 µM geraniin or 10 µM 17-AAG for 24 h.

[6] = test system: HeLa cells; test: Cell cycle and hypodiploidy by flow cytometry (PI), HeLa; assay type: cell-based, human; conditions: 24 h, geraniin 5 µM, 17-AAG 0.2 µM
Protocol: as §4, §5

[7] = test system: PHA-stimulated proliferating PBMC; test: Hypodiploidy/necrosis by flow cytometry, PHA-stimulated PBMC; assay type: cell-based, human; conditions: untreated cells 1.5±0.8%
Protocol: Jurkat and HeLa (epithelial carcinoma) cells, obtained from Cell Bank in GMP-IST (Genova, Italy) were maintained in RPMI 1640 medium or Dulbecco’s modified Eagle medium (DMEM), respectively, supplemented with 10% (v/v) FBS, 2 mM L−glutamine and antibiotics (100 U mL^−1 penicillin, 100 µg mL^−1 streptomycin) purchased from Invitrogen (Carslbad, CA, USA), at 37°C in humidified atmosphere with 5% CO2. To ensure logarithmic growth, cells were subcultured every two days. As control cells, human peripheral blood mononuclear cells (PBMC) were isolated from buffy coats of healthy donors (kindly provided by the Blood Center of the Hospital of Battipaglia, Salerno, Italy) by using standard Ficoll−Hypaque gradients. Freshly isolated PBMC contained 92.8±3.1% live cells. Proliferation of PBMC was induced by phytohemagglutinin (PHA) (10 µg mL^−1). […]
Cell DNA content was measured by propidium iodide (PI) incorporation into permeabilized cells, as described by Nicoletti et al.. […] The percentage of cells in the sub G0/G1 phase, apoptotic fraction, was quantified using CellQuest software (Becton Dickinson). The distribution of cells in G0/G1, S, G2/M phases was determined using ModFit LT cell cycle analysis software (Becton Dickinson). Results were expressed as a mean ± SD of three experiments performed in triplicate.

[8] = target: T2, Hsp90α chaperone activity (Homo sapiens, UniProt P07900); test: Citrate synthase thermal-induced aggregation assay (chaperone activity); assay type: biochemical; conditions: 0.075 µM CS, 0.075 µM Hsp90α, 0.3 µM ATP, four-fold molar excess (0.3 µM) compound, 43°C
T2 construct: purchased Assay Designs (Ann Arbor, MI, USA)
Protocol: Chaperone activity was evaluated by monitoring the thermal−induced aggregation of citrate synthase (CS) (0.075 µM), as reported elsewhere, in the absence or presence of a stoichiometric amount of Hsp90α and 0.3 µM ATP, and with or without a four−fold molar excess of each testing compound. Aggregation was initiated by unfolding CS incubating the protein in 40 mM HEPES–KOH, pH 7.5 at 43°C. Aggregation was monitored by measuring light scattering at right angles with the Perkin Elmer LS 55 fluorimeter in stirred and thermostatted quartz cells. Both the emission and excitation wavelengths were set at 500 nm, while the band–pass was 2 nm. Kinetics traces reported are the averages of two separate measurements.
Figure 3 Inhibition of Hsp90α activity. ATPase activity of the chaperone was evaluated in the presence of different concentrations of geraniin, 17-AAG and HA (A). Data are reported as the residual ATPase activity (%) compared to that observed for an untreated sample. Data are the mean of three independent experiments performed in triplicate and were analyzed by t test (HA vs testing compounds): The error bar represents the standard deviation of nine measurements, while * indicates significance at P<0.01. Aggregation kinetics of citrate synthase (CS) at 43°C determined by light scattering (B). […]

[9] = SPR, immobilized Hsp90α, 25°C, single-site bimolecular model, 0.025-1 µM, read-out: KD

Structure (SMILES): O=c1c(O)c(-c2ccc(O)cc2)oc2cc(O)cc(O)c12 [Compound 2]
Kd [1, 9]: 4.83 ± 0.515 µM

Structure (SMILES): COc1cc(-c2oc3cc(O)cc(O)c3c(=O)c2O)ccc1O [Compound 5]
Kd [1]: 0.748 ± 0.045 µM

Structure (SMILES): CC(=O)Oc1cc(OC(C)=O)c2c(=O)c(OC(C)=O)c(-c3ccc(OC(C)=O)c(OC(C)=O)c3)oc2c1 [Compound 6]
Kd [1, 9]: 2.21 ± 0.351 µM

Structure (SMILES): C=CCNC1=C2C[C@@H](C)C[C@H](OC)[C@H](O)[C@@H](C)/C=C(\C)[C@H](OC(N)=O)[C@@H](OC)/C=C\C=C(/C)C(=O)NC(=CC1=O)C2=O [Compound 17-AAG, 17-(allylamino)-17-demethoxygeldanamycin, reference compound]
IC50 [2]: 0.2 ± 0.3 µM
IC50 [3]: 9.6 ± 0.15 µM
cytotoxic effects in control PBMC [4]: Minimal cytotoxic effects
cell cycle arrest [5]: G1 and G2/M arrest
percentage of cells with hypodiploid nuclei [5]: 6.05±0.4%
cell cycle arrest [6]: G1 and G2/M arrest
percentage of cells with hypodiploid nuclei [6]: 11.6±0.5%
levels of hypodiploidy/necrosis [7]: 1.8±0.6%

Structure (SMILES): O=C1c2c(O)cc(O)cc2OC(c2ccc(O)c(O)c2)C1O (stereo not shown) [Compound 34]
Kd [1, 9]: 1.82 ± 0.242 µM

More lines, now with the values ahead:

Kd [1, 9]: 5.33 ± 0.862 µM
Structure (SMILES): O=c1c(O)c(-c2ccc(O)c(O)c2)oc2cc(O)ccc12 [Compound 4]

Kd [1, 9]: 8.75 ± 0.735 µM
Structure (SMILES): O=c1cc(-c2ccc(O)cc2)oc2cc(O)cc(O)c12 [Compound 19]

KD ([1]; SPR, immobilized Hsp90α, 25°C, single-site bimolecular model, 0.025-1 µM): No binding
effect on citrate synthase aggregation kinetics in the presence of Hsp90α [8]: did not perturb the CS+Hsp90α curve
Structure (SMILES): C[C@@H]1CC[C@@]2(C)C(C(=O)O)=CCC[C@@H]2[C@@]1(C)CCc1ccoc1 [HA, hardwickiic acid, reference compound]
